Experimental data taken from paper PMC4288171, “Meclofenamic acid selectively inhibits FTO demethylation of m^6A over ALKBH5” (Nucleic Acids Research, 2014).

Molecular target: T1, FTO (Homo sapiens, UniProt Q9C0B1)
T1 construct: FTOΔN31 (His-tag human FTO with N-terminal 31 residues truncated)
Assay: crystal structure at […] Å; DSF shift; FP displacement (IC50 […]); IC50 from HPLC demethylation assay on ssDNA
Format: biochemical

T1 sequence (Q9C0B1 32-505): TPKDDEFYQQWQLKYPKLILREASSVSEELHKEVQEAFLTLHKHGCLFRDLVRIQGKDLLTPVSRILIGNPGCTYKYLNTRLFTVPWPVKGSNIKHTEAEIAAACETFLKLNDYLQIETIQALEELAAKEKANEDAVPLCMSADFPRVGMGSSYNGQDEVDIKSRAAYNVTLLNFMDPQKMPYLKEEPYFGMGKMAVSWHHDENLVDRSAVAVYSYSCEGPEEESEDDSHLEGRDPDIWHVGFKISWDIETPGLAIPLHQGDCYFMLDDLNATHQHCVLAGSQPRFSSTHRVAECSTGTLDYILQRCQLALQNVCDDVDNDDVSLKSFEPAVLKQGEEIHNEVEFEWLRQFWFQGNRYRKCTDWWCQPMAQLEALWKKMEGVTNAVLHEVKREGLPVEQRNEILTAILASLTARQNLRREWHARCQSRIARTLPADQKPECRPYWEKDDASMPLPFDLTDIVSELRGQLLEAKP

Cc1ccc(Cl)c(Nc2ccccc2C(=O)O)c1Cl [MA, meclofenamic acid]
IC50: 7 µM
